{
  "source": "paper PMC12664080",
  "about": "“Tetrazole-containing naphthalene bis-sulfonamide Keap1-Nrf2 interaction inhibitors with unexpected binding modes” (Redox Biology, 2025)",
  "key": {"Keap1": {"target": "Keap1 (Homo sapiens, UniProt Q14145)", "sequence (Q14145 322-609)": "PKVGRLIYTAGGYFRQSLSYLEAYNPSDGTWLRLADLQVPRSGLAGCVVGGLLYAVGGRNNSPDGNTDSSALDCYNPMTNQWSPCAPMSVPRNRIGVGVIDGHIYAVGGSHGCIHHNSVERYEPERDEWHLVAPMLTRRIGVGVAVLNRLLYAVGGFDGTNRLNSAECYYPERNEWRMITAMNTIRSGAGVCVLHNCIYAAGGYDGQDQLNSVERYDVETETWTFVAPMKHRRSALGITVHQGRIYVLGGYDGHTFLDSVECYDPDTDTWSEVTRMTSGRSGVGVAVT", "test": "Microscale thermophoresis (MST)"}, "Keap1 Kelch domain [1]": {"target": "T1, Keap1 Kelch domain (Homo sapiens, UniProt Q14145)", "T1 construct": "made in house", "T1 sequence (Q14145 322-609)": "as above", "test": "Fluorescence polarisation (FP) competition assay", "type": "binding", "experimental": "The FP assays were carried out according to previously described methods [[23],[31], [32], [33], [34]]. […] Following incubation under slow agitation (30 min at rt in the absence of light), the plates were transferred to a PHERAstar microplate reader and the FP was recorded. All measurements were recorded in triplicate. The data were normalised to the control and then fitted to a standard four-parameter logistic function using the Origin Pro software."}, "Nrf2 target genes": {"tested_on": "Nrf2 target genes", "test": "Gene expression analysis (real-time quantitative PCR) in Hepa1c1c7 cells", "type": "cell-based, mouse", "settings": "16-h incubation, 10 μM or 50 μM", "experimental": "Hepa1c1c7 cells (5 × 10^5 cells/well, n = 3) were seeded on six-well plates, and on the next day were treated with compound 25 (10 μM or 50 μM) or vehicle (0.1 % DMSO) for 16 h. After two washes with PBS, the cells were lysed. RNA was then extracted, cDNA was synthesised, and the levels of mRNA for each gene were determined by real-time quantitative PCR (TaqMan). The levels of 18S mRNA in each sample were used as a control for normalization."}, "[2]": {"test": "EXSY NMR of cis/trans rotamer exchange", "type": "physicochemical", "from_the_text": "A series of pseudo-3D EXSY spectra were then acquired for compound 25 in D2O at temperatures of 280, 290, 300, 310 and 320 K (700 MHz, pulse sequence adapted from noesygpphpr and available on request, 1 s recycle delay, 13 mixing times from 5 to 1000 ms, acquisition times of 367 ms and 52 ms and spectra widths of 16 ppm and 3.5 ppm for direct and indirect dimensions respectively). Spectra were processed with linear prediction and cosine-squared window functions. For each temperature, methoxy singlet resonances were selected for analysis, and the intensities of the diagonal ( IAA and IBB ) and cross peaks ( IAB and IBA ) were fitted to Eq. (1) as a function of the mixing time, T, to determine the exchange rates kAB and kBA [41]. The ‘A’ state was defined to be the more shielded signal. Reported uncertainties were obtained from the non-linear fitting procedure.(1) (IAAIABIBAIBB)(T)=exp[(−R1,A−kABkBAkAB−R1,B−kBA)T]·(IA000IB0)\nExchange rates kAB and kBA were used to determine the relative populations pA=kBA/kAB+kBA and pB=kAB/kAB+kBA and were fitted to van't Hoff and Eyring equations (with unit transmission coefficient) to estimate the enthalpy and entropy changes and enthalpy and entropy of activation."}, "Nrf2": {"tested_on": "Nrf2", "test": "Nrf2 luciferase reporter assay (MCF7 ARE-luciferase reporter cell line)", "type": "cell-based", "settings": "Homo sapiens, MCF7 cells", "experimental": "The induction of luciferase activity in the stably transfected MCF7 ARE-luciferase reporter cell line was measured using an adaptation of a published procedure. […] The cells were treated with compound or vehicle control (1 % final DMSO concentration) and incubated for a further 24 h. The culture medium was aspirated and the cells were washed with 100 μL per well PBS. The cells were lysed using 75 μL per well lysis buffer (0.2 % Triton X-100 in 25 mM Tris pH 7.5) under gentle agitation at rt for 30 min. The samples were transferred to 500 μL Eppendorf tubes and centrifuged at 10000 g for 5 min at 4 °C. 50 μL of supernatant from each sample were transferred to a new 96 well plate. 50 uL of working reagent (100 mM Tris pH 8.0, 5 mM MgCl2, 100 μM coenzyme A, 80 μM luciferin, and 5 mM ATP) were added to each well and the luciferase activity was measured."}, "NQO1": {"tested_on": "NQO1", "test": "NQO1 induction assay in Hepa1c1c7 cells", "type": "cell-based, mouse", "experimental": "The method using Hepa1c1c7 cells has been described previously. Briefly, cells were seeded into 96-well plates (2 × 10^4 cells/200 μL per well) then incubated overnight at 37 °C. The cells were treated with compound (10 μM final concentration) or vehicle (final DMSO concentration 0.1 % DMSO) and incubated for a further 24 h or 48 h. The culture medium was aspirated and the cells treated with lysis buffer (50 μL per well, 0.1 % Tween 20 in 2 mM EDTA (pH 7.5)) then agitated for 15 min. Enzyme reaction mixture was added to each well (200 μL of 25 mM Tris buffer (pH 7.5) containing BSA (0.067 %), Tween20 (0.01 %), FAD (5 μM), G6P (1 mM), NADP (30 μM), G6P dehydrogenase (40 units), MTT (0.03 %), menadione (50 μM)) for 5 min then stop solution was applied (40 μL of 10 % SDS, final concentration 1.5 % SDS). Following brief agitation of the plate, the absorbance at 595 nm was measured. The background optical density was measured from wells containing tissue culture medium, lysis buffer, enzyme and stop solutions in the absence of Hepa1c1c7 cells. The change in background-corrected NQO1 activity (change in optical density) relative to the control was determined for each compound."}, "Keap1 Kelch domain [3]": {"target": "T1, Keap1 Kelch domain", "test": "Differential scanning fluorimetry (DSF) thermal shift assay", "type": "binding", "settings": "10 μM compound; Keap1 vehicle control Ti = 61.3 ± 0.3 °C", "experimental": "The DSF assays were carried out according to the previously described method. Solutions of the Keap1 Kelch domain protein (5 μM final concentration) and the small molecule inhibitor (10 μM final concentration) were prepared in DPBS at pH 7.4 (10 % final DMSO concentration, 20 μL final volume) in an Eppendorf tube. The solution was centrifuged briefly (1500 rpm, 60 s) to remove any particulates and mix the samples, followed by a 30 min incubation at RT. The samples were loaded into Tycho NT.6 capillaries (Nanotemper) in triplicate and positioned in the […] instrument. […] The fluorescence ratio vs temperature was plotted and the inflection temperature (Ti) of the profile was recorded. Changes in inflection (ΔTi) for the inhibitors were calculated by subtracting the mean Ti of the Keap1 sample plus vehicle from the mean Keap1 plus binder value (n = 3)."}},
  "note": "Where “and” joins values, the source holds several entries; their conditions need not be identical. Equal entries are not always repeated.",
  "data": [
    {"smiles": "COc1ccc(S(=O)(=O)N(CC(=O)O)c2ccc(N(Cc3nnn[nH]3)S(=O)(=O)c3ccc(OC)cc3)c3ccccc23)cc1", "note": "[Compound 25, N-(4-((N-((1H-tetrazol-5-yl)methyl)-4-methoxyphenyl)sulfonamido)naphthalen-1-yl)-N-((4-methoxyphenyl)sulfonyl)glycine]", "values": [
      {"measurement": "Kd", "setting": "Keap1; 1 nM Keap1", "value": "2.1 ± 0.5", "unit": "nM"},
      {"measurement": "Kd", "setting": "Keap1; 10 nM Keap1", "value": "24.3 ± 4.7", "unit": "nM"},
      {"measurement": "IC50", "setting": "Keap1 Kelch domain [1]; 200 nM Keap1 Kelch domain, 1 nM FITC-β-DEETGEF-OH", "value": "31 ± 2", "unit": "nM"},
      {"measurement": "FP IC50 fold lower than the bis-acid 2", "setting": "Keap1 Kelch domain [1]; vs 2", "value": "~2", "unit": "fold"},
      {"measurement": "FP IC50 fold lower than the bis-tetrazole 13", "setting": "Keap1 Kelch domain [1]; vs 13", "value": "~2.5", "unit": "fold"},
      {"measurement": "mRNA levels for Nrf2 target genes (NQO1, HO-1, GstP, Gclm, Gclc)", "setting": "Nrf2 target genes", "value": "increased"},
      {"measurement": "kA→B", "setting": "[2]; D2O PBS buffer, 280 K, EXSY", "value": "0.1633 ± 0.0072", "unit": "s⁻¹"},
      {"measurement": "kA→B", "setting": "[2]; D2O PBS buffer, 290 K, EXSY", "value": "0.541 ± 0.013", "unit": "s⁻¹"},
      {"measurement": "kA→B", "setting": "[2]; D2O PBS buffer, 300 K, EXSY", "value": "1.432 s⁻¹ and 1.432 ± 0.033 s⁻¹"},
      {"measurement": "kA→B", "setting": "[2]; D2O PBS buffer, 310 K, EXSY", "value": "3.26 ± 0.11", "unit": "s⁻¹"},
      {"measurement": "kA→B", "setting": "[2]; D2O PBS buffer, 320 K, EXSY", "value": "8.78 ± 0.39", "unit": "s⁻¹"},
      {"measurement": "ΔHAB", "setting": "[2]; D2O PBS buffer, pH* ~7.4, EXSY", "value": "1.43 ± 0.311", "unit": "kcal/mol"},
      {"measurement": "ΔH^‡AB", "setting": "[2]; D2O PBS buffer, pH* ~7.4, EXSY", "value": "16.6 ± 0.22", "unit": "kcal/mol"},
      {"measurement": "ΔSAB", "setting": "[2]; D2O PBS buffer, pH* ~7.4, EXSY", "value": "16.8 ± 4.4 J/(K·mol)"},
      {"measurement": "ΔS^‡AB", "setting": "[2]; D2O PBS buffer, pH* ~7.4, EXSY", "value": "-11.3 ± 3 J/(K·mol)"},
      {"measurement": "ΔS^‡AB", "setting": "[2]; D2O, EXSY, Eyring (Fig. 4D)", "value": "−11.3 ± 3.0", "unit": "J K^−1 mol^−1"},
      {"measurement": "ΔSAB", "setting": "[2]; D2O, EXSY, van 't Hoff (Fig. 4C)", "value": "16.8 ± 4.4", "unit": "J K^−1 mol^−1"},
      {"measurement": "fold induction at 10 µM", "setting": "Nrf2; 10 μM, 24 h", "value": 1.48},
      {"measurement": "fold induction at 100 µM", "setting": "Nrf2; 100 μM (highest test concentration), read-out: peak fold induction of luciferase activity", "value": 5.66},
      {"measurement": "specific enzyme activity of NQO1", "setting": "NQO1; 48-h incubation", "value": "increased"},
      {"measurement": "fold induction at 10 µM", "setting": "NQO1; Mus musculus, Hepa-1c1c7, 10 μM", "value": "2.01 ± 0.05"},
      {"measurement": "DSF ΔTi", "setting": "Keap1 Kelch domain [3]", "value": "19.4 ± 0.4", "unit": "°C"}
    ]}
  ]
}
